Measured values as given in article PMC8509773, “3-Pyridinylidene Derivatives of Chemically Modified Lupane and Ursane Triterpenes as Promising Anticancer Agents by Targeting Apoptosis” (International Journal of Molecular Sciences, 2021).
Marks after values point to notes of the source that are not given here.

Key:
[1] = test system: Bak gene; test: rtPCR gene expression in Sk-Mel-28 cells; assay type: cell-based, human
Excerpt: (§1) We applied rtPCR techniques in order to investigate the effect of our two compounds on the anti-apoptotic Bcl-XL and Bcl-2 genes as well as the proapoptotic Bak and Bad genes (Table 4). […] Therefore, we may presume that the apoptotic mechanism of both compounds against the A375 cells is not mediated by the tested genes or that alterations in their ratio are the underlying mechanism.

[2] = test system: Bcl-XL gene; test: rtPCR gene expression in Sk-Mel-28 cells; assay type: cell-based, human
Excerpt: as §1

[3] = test system: RPMI-8226; test: NCI-60 SRB screening (one-dose and five-dose); assay type: cell-based, human; details: 48 h
Summary of the method: (§2)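 Spectrophotometric SRB end point; 48-h drug exposure; percent of untreated-control growth reported.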

[4] = test system: BT-549; test: NCI-60 SRB screening (one-dose and five-dose); assay type: cell-based, human; details: 48 h
Summary of the method: (§3)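 Test agents were applied at one concentration; 48 h later, sulforhodamine B staining quantified growth as a percentage of controls receiving no agent.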

[5] = test system: KM-12; test: NCI-60 SRB screening (one-dose and five-dose); assay type: cell-based, human; details: 48 h
Summary of the method: as §2

[6] = test system: NCI-H23; test: NCI-60 SRB screening (one-dose and five-dose); assay type: cell-based, human; details: 48 h
Summary of the method: (§4)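 After a 48-h incubation with compound, cellular protein was stained with SRB and growth estimated by spectrophotometry relative to untreated controls.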

[7] = test system: K-562; test: NCI-60 SRB screening (one-dose and five-dose); assay type: cell-based, human; details: 48 h
Summary of the method: as §3

[8] = test system: EKVX; test: NCI-60 SRB screening (one-dose and five-dose); assay type: cell-based, human; details: 48 h
Summary of the method: as §2

[9] = test system: MCF7; test: NCI-60 SRB screening (one-dose and five-dose); assay type: cell-based, human; details: 48 h
Summary of the method: as §2

[10] = test system: SNB-75; test: NCI-60 SRB screening (one-dose and five-dose); assay type: cell-based, human; details: 48 h
Summary of the method: as §4

[11] = test system: NCI-H226; test: NCI-60 SRB screening (one-dose and five-dose); assay type: cell-based, human; details: 48 h
Summary of the method: as §2

[12] = test system: COLO 205; test: NCI-60 SRB screening (one-dose and five-dose); assay type: cell-based, human; details: 48 h
Summary of the method: as §2

[13] = test system: UACC-62; test: NCI-60 SRB screening (one-dose and five-dose); assay type: cell-based, human; details: 48 h
Summary of the method: as §2

[14] = test system: NCI/ADR-RES; test: NCI-60 SRB screening (one-dose and five-dose); assay type: cell-based, human; details: 48 h
Summary of the method: as §2

[15] = test system: SF-268; test: NCI-60 SRB screening (one-dose and five-dose); assay type: cell-based, human; details: 48 h
Summary of the method: as §3

[16] = test system: M14; test: NCI-60 SRB screening (one-dose and five-dose); assay type: cell-based, human; details: 48 h
Summary of the method: as §3

[17] = test system: HL-60(TB); test: NCI-60 SRB screening (one-dose and five-dose); assay type: cell-based, human; details: 48 h
Summary of the method: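 Single dose, 48 h incubation. Sulforhodamine B protein binding dye used to estimate cell growth spectrophotometrically against untreated controls. Mean graph midpoints averaged each parameter across all lines, insensitive lines entered at the highest concentration tested.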

[18] = test system: A498; test: NCI-60 SRB screening (one-dose and five-dose); assay type: cell-based, human; details: 48 h
Summary of the method: as §3

[19] = test system: OVCAR-4; test: NCI-60 SRB screening (one-dose and five-dose); assay type: cell-based, human; details: 48 h
Summary of the method: as §4

[20] = test system: NCI-H460; test: NCI-60 SRB screening (one-dose and five-dose); assay type: cell-based, human; details: 48 h
Summary of the method: as §2

[21] = test system: PC-3; test: NCI-60 SRB screening (one-dose and five-dose); assay type: cell-based, human; details: 48 h
Summary of the method: as §2

[22] = test system: SK-MEL-28; test: NCI-60 SRB screening (one-dose and five-dose); assay type: cell-based, human; details: 48 h
Summary of the method: as §4

[23] = test system: NCI-60 cancer cell line panel; test: NCI-60 cancer cell line panel screening (whole panel / subpanels); assay type: cell-based; details: for Selectivity index (SI): full panel MG_MID / subpanel MG_MID
Experimental: At first, compounds were tested in a single high dose concentration regimen (10 µM) against a panel of sixty various cancer cell lines; the results of the screening are outlined in Table 1 in the form of percent growth (GP %) of treated cells versus untreated cells used as control, where negative numbers indicate cell kill. The experimental results of growth inhibition may range from 0 to 100 and indicate a cytostatic effect while negative values indicate cell death and thus a cytotoxic activity (for NCI data see Supplementary Material Figures S6–S12).
The selectivity index (SI) was calculated by dividing the full panel MG_MID60 (μM) of tested compounds by their individual subpanel MG_MID of the cell line (μM); it correlates directly to the selectivity of their anticancer activity (Table 3). […] By contrast, despite its strong antiproliferative effect, compound 7 acts with low selectivity against the various human tumor cell lines, the highest SI value being 1.73.
Compounds 1, 2, and 4–8 were tested at one dose assay (10^−5 M) toward a panel of approximately sixty cancer cell lines representing different cancer types: leukemia, melanoma, lung, colon, CNS, ovarian, renal, prostate, and breast cancers. Primary anticancer assays were performed according to the NCI protocol as described elsewhere (see, e.g., http://dtp.nci.nih.gov accessed on 16 October 2019). The compounds were added at a single concentration and the cell cultures were incubated for 48 h. The end point determinations were made with a protein binding dye, sulforhodamine B (SRB). The results for each compound are reported as the percent growth (GP %) of treated cells compared to untreated control cells (negative numbers indicate cell kill). Compounds with considerable activity against all tested human tumor cell lines (6 and 7) were selected for the advanced assay against a panel of approximately sixty tumor cell lines at 10-fold dilutions of five concentrations (100 µM, 10 µM, 1 µM, 0.1 µM, and 0.01 µM). The percentage of growth was evaluated spectrophotometrically versus controls not treated with test agents after 48-h exposure and using SRB protein assay to estimate cell viability or growth. Three antitumor activity dose–response parameters were calculated for each cell line: GI50—molar concentration of the compound that inhibits 50% net cell growth; TGI—molar concentration of the compound leading to the total inhibition; and LC50—molar concentration of the compound leading to 50% net cell death (presented in negative logarithm). Furthermore, mean graph midpoints (MG_MID) were calculated for each of the parameters, giving an average activity parameter over all cell lines for the tested compound. For the MG_MID calculation, insensitive cell lines were included with the highest concentration tested.

[24] = test system: Bcl-2 gene; test: rtPCR gene expression in Sk-Mel-28 cells; assay type: cell-based, human
[25] = Homo sapiens, five dose 0.01–100 μM

For `COC(=O)[C@]12CC[C@@H](C(=O)/C=C/c3cccnc3)[C@@H]1[C@H]1CC[C@@H]3[C@@]4(C)C/C(=C\c5cccnc5)C(=O)C(C)(C)[C@@H]4CC[C@@]3(C)[C@]1(C)CC2` [Compound 7, methyl 2,30-bis-(3-pyridinylidene)-3,20-dioxo-lup-28-oate], the “Bak gene expression, Mean” value [1] was 59.543 **, the “Bcl-XL gene expression, Mean” value [2] was 3.826 and the GI50 ([3]; Homo sapiens, RPMI-8226, five dose 0.01–100 μM) was 240 nM. For the same compound, the “Growth Percent” value ([3]; RPMI-8226, 10 μM) was −28.73%, the “Growth Percent” value ([4]; BT-549, 10 μM) was −92.12% and the GI50 ([4]; Homo sapiens, BT-549, five dose 0.01–100 μM) was 220 nM. The GI50 ([5]; Homo sapiens, KM12, KM-12, five dose 0.01–100 μM) was 1080 nM, the “Growth Percent” value ([5]; KM-12, 10 μM) was −74.98% and the GI50 ([6]; Homo sapiens, NCI-H23, five dose 0.01–100 μM) was 350 nM. The “Growth Percent” value ([6]; NCI-H23, 10 μM) was −48.31%, the GI50 ([7]; Homo sapiens, K562, K-562, five dose 0.01–100 μM) was 330 nM and the “Growth Percent” value ([7]; K-562, 10 μM) was −21.61%. For the same compound, the “Growth Percent” value ([8]; 10 μM) was −76.32%, the GI50 [8, 25] was 410 nM and the GI50 ([9]; Homo sapiens, MCF7, five dose 0.01–100 μM) was 380 nM. The “Growth Percent” value ([9]; MCF7, 10 μM) was −54.19%, the GI50 ([10]; Homo sapiens, SNB-75, five dose 0.01–100 μM) was 1350 nM and the “Growth Percent” value ([10]; SNB-75, 10 μM) was −98.68%. The GI50 ([11]; Homo sapiens, NCI-H226, five dose 0.01–100 μM) was 1480 nM, the “Growth Percent” value ([11]; NCI-H226, 10 μM) was −44.44% and the “Growth Percent” value ([12]; COLO 205, 10 μM) was −45.07%. For the same compound, the GI50 ([12]; Homo sapiens, COLO 205, five dose 0.01–100 μM) was 360 nM, the GI50 ([13]; Homo sapiens, UACC-62, five dose 0.01–100 μM) was 400 nM and the “Growth Percent” value ([13]; UACC-62, 10 μM) was −67.85%. For the same compound, the “Growth Percent” value ([14]; 10 μM) was −39.38%, the GI50 [14, 25] was 430 nM and the GI50 ([15]; Homo sapiens, SF-268, five dose 0.01–100 μM) was 1010 nM. The “Growth Percent” value ([15]; SF-268, 10 μM) was −80.80%, the GI50 ([16]; Homo sapiens, M14, five dose 0.01–100 μM) was 310 nM and the “Growth Percent” value ([16]; M14, 10 μM) was −80.31%. The “Growth Percent” value ([17]; 10 μM) was −30.17%, the GI50 [17, 25] was 250 nM and the “Growth Percent” value ([18]; A498, 10 μM) was −91.17%. For the same compound, the GI50 ([18]; Homo sapiens, A498, five dose 0.01–100 μM) was 180 nM, the GI50 ([19]; Homo sapiens, OVCAR-4, five dose 0.01–100 μM) was 340 nM and the “Growth Percent” value ([19]; OVCAR-4, 10 μM) was −39.20%. The GI50 ([20]; Homo sapiens, NCI-H460, five dose 0.01–100 μM) was 830 nM, the “Growth Percent” value ([20]; NCI-H460, 10 μM) was −78.43% and the GI50 ([21]; Homo sapiens, PC-3, five dose 0.01–100 μM) was 420 nM. For the same compound, the “Growth Percent” value ([21]; PC-3, 10 μM) was −14.12%, the GI50 ([22]; Homo sapiens, SK-MEL-28, five dose 0.01–100 μM) was 240 nM and the “Growth Percent” value ([22]; SK-MEL-28, 10 μM) was −96.28%. For the same compound, the “Selectivity index (SI)” value ([23]; Breast Cancer subpanel) was 1.34, the “Selectivity index (SI)” value ([23]; CNS Cancer subpanel) was 0.72 and the “Selectivity index (SI)” value ([23]; Colon Cancer subpanel) was 1.07. For the same compound, the GI50 ([23]; Homo sapiens, five-dose testing, all cell lines, read-out: GI50 values, range over the NCI-60 panel) was 180 to 1530 nM, the “Selectivity index (SI)” value ([23]; Leukemia subpanel) was 1.73 and the “Selectivity index (SI)” value ([23]; Melanoma subpanel) was 1.59. The “Selectivity index (SI)” value ([23]; Non-Small Cell Lung Cancer subpanel) was 0.65, the “Selectivity index (SI)” value ([23]; Ovarian Cancer subpanel) was 0.98 and the “Selectivity index (SI)” value ([23]; Prostate Cancer subpanel) was 0.50. For the same compound, the “Selectivity index (SI)” value ([23]; Renal Cancer subpanel) was 1.23 and the “Bcl-2 gene expression, Mean” value [24] was 0.210 *.
